The test system of one series is L1210 cells. Nature of the series: cells. Format: cell-based. Conditions: Mus musculus, L1210, 72 h, read-out: Cytotoxicity TD50 L1210. As for the experimental part: In vitro L1210 cell cytotoxicity assay was done by the method of microculture tetrazolium assay (Alley et al., Cancer Research, 48, 589-601 (1988)). L1210 cells were cultivated in RPMI 1640 medium supplemented with 10% fetal calf serum and […] of 2-mercaptoethanol at 37° C. in humidified 5% CO2 atmosphere to prepare a cell stock. Cells were counted using neubauer hemocytometer and seed in 96 well plates at 100 μl of 0.5×10^4 cells per ml. The test compounds were diluted and 100 μl of the solution was added in triplicate wells to give the final concentration of 10, 5, 1, 0.5 and 0.1 μg/ml. Control wells were identical except that the test compound was absent. These were cultured for three days. Results were assayed using the microculture tetrazolium assay briefly. 50 μl of MTT formazoan working solution (1:5 v/v in culture medium) was added to each well and cultures were incubated at 37° C. for 4 hrs. Culture plates were centrifuged at low speed for 5 minutes. All but 10-20 μl of culture medium supernatant was removed by slow aspiration and replaced by 50 μl of DMSO. The formazoan was dissolved by shaking on a mechanical shaker and read at OD540 on a multiscan spectrophotometer. TD50 values were calculated using the formula: [formula] to give interpolative values between two dilutions.

The subject of a further series is Sarcoma 180. Nature of the series: In Vivo Antitumor Activity Against Sarcoma 180. The note with it: for Mortality in 12 days: i.p., days 1, 5 and 9.
In a further series the test system is KB cells. The series can be described thus: In Vitro KB Cell Cytotoxicity Assay (crystal violet). Format: cell-based. Conditions: Homo sapiens, 72 h, read-out: Cytotoxicity TD50 KB. Here is the method:
KB cells were cultivated in Eagles minimum essential medium supplemented with 10% calf serum and incubated at 37° C. in a humidified 5% CO2 atmosphere to prepare a cell stock. Cells were counted using a neubauer hemocytometer and seeded in 96 well plates at 100 μl of 3×10^4 cells/ml and cultured for one day. […] Control wells were identical except that test compound was absent. These were cultured for three days. […] Then stained with 100 μl of 0.05% crystal violet for 15 minutes, washed with water and dried. The wells were eluted with 100 μl of 0.05M NaH2 PO4 /ethanol (1:1 v/v) and read at OD540 on a multiscan spectrophotometer. TD50 values were calculated using the following formula.

Where [1] appears, read: Mus musculus, Sarcoma-180, ip, 288 h, read-out: % Inhibition of tumor growth.

Values after ≈ are worked out from the molar mass of the structure shown.

From US5561126A, “4-oxa-1-azabicyclo [3,2,0] heptan-7-one derivatives as antitumor agents” (Taiho Pharmaceutical Co., Ltd., priority 1992, dated 1996) come the findings set out here.

Procedure for Sarcoma 180: Sarcoma 180, 5×10^6 cells were inoculated by S.C. to male ICR mice (6 weeks old) on day 0. Drugs were administered on days 1, 5 and 9. Mice were killed and tumor weight was measured on day 12 after transplantation. The percentage inhibition of tumor growth was calculated from the mean tumor weight of the treated group compared with that of the control group. Number of mice used in each group was between 6 to 10.

`O=COC[C@H]1CN2C(=O)C[C@@H]2O1` (racemic) [compound 3, (3RS, 5SR)-3-Formyloxymethyl-4-oxa-1-azabicyclo[3,2,0]heptan-7-one]: the CC50 in the series on L1210 cells was 0.22 µg/mL (≈ 1.29 µM); in the series on KB cells, 0.04 µg/mL (≈ 0.234 µM). Moreover, the “Mortality in 12 days” value in the series with Sarcoma 180 (3.13 mg/kg/day) and with Sarcoma 180 (6.25 mg/kg/day) was 0/7 throughout. The inhibition in vivo at 3.13 mg/kg in the series on Sarcoma 180 (setting [1]) was found to be 27.6%. For the same compound, in the series on Sarcoma 180 (setting [1]), the inhibition in vivo at 6.25 mg/kg was determined as 55.3%.
As to `CC(=O)OC[C@H]1CN2C(=O)C[C@@H]2O1` (racemic) [compound 4, (3RS, 5SR)-3-Acetoxymethyl-4-oxa-1-azabicyclo[3,2,0]heptan-7-one], the CC50 in the series with L1210 cells and in the series with KB cells was 0.4 µg/mL (≈ 2.16 µM) throughout. The “Mortality in 12 days” value in the series on Sarcoma 180 (6.25 mg/kg/day) and in the series on Sarcoma 180 (12.5 mg/kg/day) was 0/7 throughout. The inhibition in vivo at 6.25 mg/kg in the series on Sarcoma 180 (setting [1]) amounted to 64%. The inhibition in vivo at 12.5 mg/kg in the series on Sarcoma 180 (setting [1]) came out at 70.7%.
Regarding `CCCC(=O)OC[C@H]1CN2C(=O)C[C@@H]2O1` (racemic) [compound 5, (3RS, 5SR)-3-Butyryloxymethyl-4-oxa-1-azabicyclo [3,2,0]heptan-7-one], the figures for the CC50 in the series on L1210 cells and with KB cells were 0.45 µg/mL (≈ 2.11 µM) and 0.3 µg/mL (≈ 1.41 µM), respectively.
Take `CCCCCC(=O)OC[C@H]1CN2C(=O)C[C@@H]2O1` (racemic) [compound 6, (3RS, 5SR)-3-Hexanoyloxymethyl-4-oxa-1-azabicyclo[3,2,0]heptan-7-one]: the CC50 came out at 0.7 µg/mL (≈ 2.9 µM) in the series on L1210 cells and 0.3 µg/mL (≈ 1.24 µM) in the series on KB cells. Also, the “Mortality in 12 days” value with Sarcoma 180 (13 mg/kg/day), with Sarcoma 180 (25 mg/kg/day) and in the series on Sarcoma 180 (50 mg/kg/day) was 0/6 each time. The inhibition in vivo at 13 mg/kg in the series with Sarcoma 180 (setting [1]) worked out at 36.4%. Moreover, the inhibition in vivo at 25 mg/kg in the series on Sarcoma 180 (setting [1]) was determined as 61.4%. Further, in the series with Sarcoma 180 (setting [1]), the inhibition in vivo at 50 mg/kg was 78%.
As for `CCCCCCCC(=O)OC[C@H]1CN2C(=O)C[C@@H]2O1` (racemic) [compound 7, (3RS, 5SR)-3-(n-Octanoyloxymethyl)-4-oxa-1-azabicyclo[3,2,0] heptan-7-one], the CC50 stood at 0.34 µg/mL (≈ 1.26 µM) in the series on L1210 cells and 0.1 µg/mL (≈ 0.371 µM) in the series on KB cells.
Consider `CCCCCCCCCC(=O)OC[C@H]1CN2C(=O)C[C@@H]2O1` (racemic) [compound 8, (3RS, 5SR)-3-Decanoyloxymethyl-4-oxa-1-azabicyclo[3,2,0]heptan-7-one], for which the figures for the CC50 with L1210 cells and with KB cells were 0.37 µg/mL (≈ 1.24 µM) and 0.3 µg/mL (≈ 1.01 µM), respectively.
With `O=C(CCl)OC[C@H]1CN2C(=O)C[C@@H]2O1` (racemic) [compound 13, (3RS, 5SR)-3-Chloroacetoxymethyl-4-oxa-1-azabicyclo[3,2,0]heptan-7-one], the values for the CC50 in the series with L1210 cells and in the series with KB cells were 0.28 µg/mL (≈ 1.27 µM) and 0.5 µg/mL (≈ 2.28 µM), respectively.
As to `C#CC(=O)OC[C@H]1CN2C(=O)C[C@@H]2O1` (racemic) [compound 16, (3RS, 5SR)-3-Propynoyloxymethyl-4-oxa-1-azabicyclo[3,2,0]heptan-7-one], the CC50 came out at 0.04 µg/mL (≈ 0.205 µM) in the series on L1210 cells and 0.07 µg/mL (≈ 0.359 µM) in the series with KB cells. Besides, the “Mortality in 12 days” value in the series with Sarcoma 180 (1.56 mg/kg/day) and with Sarcoma 180 (3.13 mg/kg/day) was 0/7 each time. The inhibition in vivo at 1.56 mg/kg in the series on Sarcoma 180 (setting [1]) amounted to 45.9%. Also, the inhibition in vivo at 3.13 mg/kg in the series on Sarcoma 180 (setting [1]) was determined as 53%.
For the compound `O=C1C[C@@H]2O[C@@H](C[S+]([O-])Cc3ccccc3)CN12` (mixture of isomers) [compound 42, (3RS,5SR)-3-Benzylsulfinylmethyl-4-oxa-1-azabicyclo[3,2,0]heptan-7-one], the CC50 turned out to be 0.3 µg/mL (≈ 1.13 µM) with L1210 cells and 0.1 µg/mL (≈ 0.377 µM) with KB cells. Further, the “Mortality in 12 days” value in the series with Sarcoma 180 (50 mg/kg/day) was 0/7. In addition, the inhibition in vivo at 50 mg/kg in the series with Sarcoma 180 (setting [1]) came out at 64%.
With `O=C1C[C@@H]2O[C@@H](C[S+]([O-])c3ccccc3)CN12` (mixture of isomers) [compound 45, (3RS, 5SR)-3-Phenylsulfinylmethyl-4-oxa-1-azabicyclo [3,2,0]heptan-7-one], the results for the CC50 with L1210 cells and with KB cells were 0.26 µg/mL (≈ 1.03 µM) and 0.3 µg/mL (≈ 1.19 µM), respectively.
Regarding `CC=CC=CC(=O)OC[C@H]1CN2C(=O)C[C@@H]2O1` (relative stereo) [compound 14, (3RS, 5SR)-3-(2,4-Hexadienoyloxyymethyl)-4-oxa-1-azabicyclo [3,2,0]heptan-7-one], the values for the CC50 in the series with L1210 cells and with KB cells were 0.65 µg/mL (≈ 2.74 µM) and 0.3 µg/mL (≈ 1.26 µM), respectively.
The like results for `CCC=CCC=CCC=CCCCCCCCC(=O)OC[C@H]1CN2C(=O)C[C@@H]2O1` (relative stereo) [compound 15] were, in that order, 0.5 µg/mL (≈ 1.24 µM) and 0.41 µg/mL (≈ 1.02 µM).
Take `O=C1C[C@@H]2O[C@@H](CO)CN12` [compound 40, (3R,5S)-3-Hydroxymethyl-4-oxa-1-azabicyclo[3,2,0]heptan-7-one]: the CC50 in the series with L1210 cells was 0.027 µg/mL (≈ 0.189 µM); in the series with KB cells, 0.03 µg/mL (≈ 0.21 µM). In addition, the “Mortality in 12 days” value in the series on Sarcoma 180 (0.94 mg/kg/day), with Sarcoma 180 (1.88 mg/kg/day), in the series on Sarcoma 180 (3.75 mg/kg/day) and in the series on Sarcoma 180 (7.5 mg/kg/day) was 0/7 each time. The inhibition in vivo at 0.94 mg/kg with Sarcoma 180 (setting [1]) worked out at 56.1%. The inhibition in vivo at 1.88 mg/kg in the series on Sarcoma 180 (setting [1]) was 63.7%. In addition, the inhibition in vivo at 3.75 mg/kg in the series on Sarcoma 180 (setting [1]) turned out to be 69.1%. Moreover, in the series on Sarcoma 180 (setting [1]), the inhibition in vivo at 7.5 mg/kg was determined as 77.4%.
